Laboratory results published in US20230303562A1, “PYRAZOLE COMPOUND AND PREPARATION METHOD THEREFOR AND USE THEREOF” (Sichuan Kelun-Biotech Biopharmaceutical Co., Ltd., priority 2020, published 2023).
Each block holds one molecule with its values, some of them ahead of it.

Columns and labels:
TGFβR1 = TGFβR1 (Homo sapiens (Human), UniProt P36897); assay: In vitro enzymatic activity inhibition test (TGFβR1), ADP-Glo Kinase Detection Kit; type: biochemical; settings: estimated from inhibition at 1000, 100, 10 nM
Sequence of TGFβR1 (P36897 34-503): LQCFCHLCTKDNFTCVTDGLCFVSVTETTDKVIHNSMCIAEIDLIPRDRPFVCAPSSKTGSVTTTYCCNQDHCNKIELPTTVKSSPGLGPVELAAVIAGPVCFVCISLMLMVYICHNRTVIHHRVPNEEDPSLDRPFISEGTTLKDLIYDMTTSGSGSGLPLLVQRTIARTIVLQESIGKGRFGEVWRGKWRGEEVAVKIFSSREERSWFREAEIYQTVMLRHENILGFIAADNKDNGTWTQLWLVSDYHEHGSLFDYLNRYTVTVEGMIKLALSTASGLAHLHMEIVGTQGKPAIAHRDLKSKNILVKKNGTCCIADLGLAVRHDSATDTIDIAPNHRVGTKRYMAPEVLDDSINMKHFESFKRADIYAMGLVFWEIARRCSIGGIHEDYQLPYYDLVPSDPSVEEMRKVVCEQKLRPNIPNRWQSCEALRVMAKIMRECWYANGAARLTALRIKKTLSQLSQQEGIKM
Method: Experimental method: According to the instructions of ADP-Glo™ Kinase Detection Kit (Promega), the inhibitory effect of the compounds of the present invention on the enzymatic activity of TGFβR1 was determined, and the steps were as follows:
TGFβR1 enzyme were pre-incubated with different concentrations of test compounds (1000 nM, 100 nM, 10 nM) at 30° C. for 30 min, TGFβR1 peptide and adenosine triphosphate (ATP) were added to initiate the reaction. The incubation was performed at 30° C. for 3 h, followed by an addition of ADP-Glo™ reagent and incubated at room temperature for 90 min, kinase detection reagent was then added. Chemiluminescence signal values were detected after incubation at room temperature for another 30 min. Taking the solvent group (DMSO) as the negative control and the buffer group (without TGFβR1 enzyme) as the blank control, the percent inhibition rates of different concentrations of compounds were calculated according to the following formula: […]
When the percent inhibition rate was between 30% and 80%, the median inhibitory concentration (IC50) or range of the compound was calculated according to the following formula:
IC50=X×(1−percent inhibition rate (%))/percent inhibition rate (%), wherein X is the concentration of the compound at which the inhibition rate is between 30% and 80%.

TGFβR2 = TGFβR2 (Homo sapiens (Human), UniProt P37173); assay: In vitro enzymatic activity inhibition test (TGFβR2), ADP-Glo Kinase Detection Kit; type: biochemical; settings: MBP substrate, estimated from inhibition at 1000, 100, 10 nM
Sequence of TGFβR2 (P37173 23-567): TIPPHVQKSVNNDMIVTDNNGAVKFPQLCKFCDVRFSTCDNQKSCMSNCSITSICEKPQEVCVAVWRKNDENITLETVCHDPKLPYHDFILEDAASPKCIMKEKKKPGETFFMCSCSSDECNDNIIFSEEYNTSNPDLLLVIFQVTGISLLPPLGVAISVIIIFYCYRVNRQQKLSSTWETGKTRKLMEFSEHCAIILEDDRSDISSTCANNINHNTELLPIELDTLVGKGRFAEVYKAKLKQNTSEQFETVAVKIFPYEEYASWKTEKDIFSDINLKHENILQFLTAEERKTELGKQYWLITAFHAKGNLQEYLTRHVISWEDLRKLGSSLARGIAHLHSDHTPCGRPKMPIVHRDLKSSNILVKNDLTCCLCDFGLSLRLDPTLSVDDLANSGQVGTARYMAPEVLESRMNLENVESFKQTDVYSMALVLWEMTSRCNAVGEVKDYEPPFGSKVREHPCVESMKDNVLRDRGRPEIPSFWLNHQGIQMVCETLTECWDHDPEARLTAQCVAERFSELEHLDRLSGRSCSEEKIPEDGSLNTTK
Method: The chemiluminescence signal values were detected after incubation at room temperature for another 30 min.

hERG = hERG (Homo sapiens (Human), UniProt Q12809); assay: Biochemical hERG inhibition test (Predictor hERG fluorescence polarization kit); type: binding; settings: competition with Tracer, tested at 10 μM and 1 μM
Sequence of hERG (Q12809 whole entry): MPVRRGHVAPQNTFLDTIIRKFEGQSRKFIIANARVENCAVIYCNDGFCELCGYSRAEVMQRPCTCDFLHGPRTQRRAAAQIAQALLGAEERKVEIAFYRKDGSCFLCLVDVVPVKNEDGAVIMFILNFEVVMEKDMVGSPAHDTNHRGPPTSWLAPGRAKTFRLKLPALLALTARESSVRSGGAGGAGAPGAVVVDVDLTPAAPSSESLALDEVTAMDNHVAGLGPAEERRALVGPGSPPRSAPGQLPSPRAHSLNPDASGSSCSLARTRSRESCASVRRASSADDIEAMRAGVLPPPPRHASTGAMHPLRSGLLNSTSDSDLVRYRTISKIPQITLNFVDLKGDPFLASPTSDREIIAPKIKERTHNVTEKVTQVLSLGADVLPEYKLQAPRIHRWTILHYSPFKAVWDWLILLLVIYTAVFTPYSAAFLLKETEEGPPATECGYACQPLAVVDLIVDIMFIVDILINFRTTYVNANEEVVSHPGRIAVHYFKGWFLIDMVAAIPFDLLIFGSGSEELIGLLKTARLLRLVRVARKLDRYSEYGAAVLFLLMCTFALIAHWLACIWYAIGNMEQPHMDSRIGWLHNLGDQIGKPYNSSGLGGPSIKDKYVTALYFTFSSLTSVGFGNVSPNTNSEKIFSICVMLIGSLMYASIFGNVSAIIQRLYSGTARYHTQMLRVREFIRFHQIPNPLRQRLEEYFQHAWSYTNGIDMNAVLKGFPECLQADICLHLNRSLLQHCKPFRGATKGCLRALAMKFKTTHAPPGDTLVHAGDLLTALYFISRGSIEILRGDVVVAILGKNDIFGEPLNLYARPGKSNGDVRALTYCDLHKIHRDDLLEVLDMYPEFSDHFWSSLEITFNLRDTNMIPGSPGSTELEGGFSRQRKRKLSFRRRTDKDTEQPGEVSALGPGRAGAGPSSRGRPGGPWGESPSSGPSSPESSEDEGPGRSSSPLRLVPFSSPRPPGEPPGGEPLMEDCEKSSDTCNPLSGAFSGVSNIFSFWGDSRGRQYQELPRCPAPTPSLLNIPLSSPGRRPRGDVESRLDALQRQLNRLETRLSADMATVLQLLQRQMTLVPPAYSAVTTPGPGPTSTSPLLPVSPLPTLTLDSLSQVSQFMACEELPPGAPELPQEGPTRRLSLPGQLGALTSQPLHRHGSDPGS
Method: Kit: Predictor™ hERG fluorescence polarization detection kit (ThermoFisher), the kit contained the following components: positive control compound hERG potassium channel blocker E4031; hERG cell membrane; affinity tracer Tracer; and hERG buffer.
hERG concentration: 1×; Tracer concentration: 1 nM; incubation time: 2 h; BMG PHERAstar FS FP.
The test was carried out according to the kit instructions, and the steps were as follows:
Positive control group: 30 μM positive control compound E4031 was used to replace the test compound, and the experimental method was the same as that of the test group.
Blank control group: hERG buffer was used to replace the test compound without the addition of hERG cell membrane, and the experimental method was the same as that of the test group.
According to the data ratio, the percent inhibition rates (%) of the compounds of the present invention to hERG at different concentrations were calculated, and the ranges of the half inhibitory concentration (IC50) of the compounds were determined.

[1] = Pharmacokinetics (PK) study in Balb/c mice; type: in vivo; settings: female Balb/c mice; for F (bioavailability) / bioavailability: PO 10 mg/kg compared with IV 1 mg/kg; for bioavailability: mouse, read-out: F (bioavailability)
Method: The example compounds were administered to female Balb/c mice via intravenous injection (IV) and gastric perfusion (PO), respectively, and their pharmacokinetic properties were investigated. The administered doses for IV and PO were 1 mg/kg and 10 mg/kg, respectively. The solvent for IV was 5% DMSO+5% Solutol (15-hydroxystearic acid polyethylene glycol ester)+90% normal saline, the solvent for PO was 0.5% MC ([…] methylcellulose). Whole blood samples were collected at various time points after IV and PO administration, and subjected to EDTA-K2 anticoagulation before test.
Whole blood samples were processed by precipitating proteins and then subjected to LC-MS/MS analysis. The pharmacokinetic parameters were calculated by the non-compartmental model using WinNonlin 6.3 software, and the results were shown in Table 6 below.

IC50 (TGFβR1): 48.6 ± 18.6 nM | IC50 (TGFβR2): > 1000 nM
SMILES: Cc1cccc(-n2nccc2-c2ccc3ncsc3c2)n1 [Example 1, 6-(1-(6-methylpyridin-2-yl)-1H-pyrazol-5-yl)benzo[d]thiazole]
IC50 (hERG): > 10 µM

SMILES: Cc1cccc(-n2nc3c(c2-c2ccn4ncc(C(N)=O)c4c2)CCC3)n1 [Example 6, 5-[2-(6-methylpyridin-2-yl)-2,4,5,6-tetrahydrocyclopenteno[c]pyrazol-3-yl]pyrazolo[1,5-a]pyridine-3-carboxamide]
AUClast ([1]; IV, 1 mg/kg, whole blood): 578 ± 4 ng·h/mL | Cl ([1]; IV, 1 mg/kg, whole blood): 28.4 ± 0.3 mL/min/kg | Cmax ([1]; IV, 1 mg/kg, whole blood): 1163 ± 58 ng/mL | F (bioavailability) [1]: 61.4 ± 9.5% | F (bioavailability) ([1]; listed as Example VI): 61.4% | AUClast ([1]; PO, 10 mg/kg, whole blood): 3586 ± 563 ng·h/mL | Cmax ([1]; PO, 10 mg/kg, whole blood): 7440 ± 226 ng/mL | T1/2 ([1]; PO, 10 mg/kg, whole blood): 27.6 ± 11.4 min | T1/2 ([1]; PO, 10 mg/kg, whole blood, listed as Example VI): 27.6 min

T1/2 ([1]; PO, 10 mg/kg, whole blood): 108 ± 21 min | bioavailability ([1]; whole blood): 98.1%
SMILES: CNc1cc(-c2ccn3ncc(C(N)=O)c3c2)n(-c2cccc(C)n2)n1 [Example 8, 5-(3-(methylamino)-1-(6-methylpyridin-2-yl)-1H-pyrazol-5-yl)pyrazolo[1,5-a]pyridine-3-carboxamide]

T1/2 ([1]; PO, 10 mg/kg, whole blood): 31.2 ± 10.8 min | bioavailability ([1]; whole blood): 52.1%
SMILES: Cc1cccc(-n2nccc2-c2ccn3ncc(C(N)=O)c3c2)n1 [Example 12, 5-(1-(6-methylpyridin-2-yl)-1H-pyrazol-5-yl)pyrazolo[1,5-a]pyridine-3-carboxamide]
